Where “and” joins values, the source holds several entries; their conditions need not be identical. Identical values can stand only once.
Tested on: 935938-334-R-J1-PDC complex spheroid viability
Assay: Anticancer human tumor 935938-334-R-J1-PDC patient-derived small intestine adenocarcinoma cell line growth inhibition [POLQ]
Conditions: for viability, T/C: stronger effect = lower value
Procedure: Multicellular complex tumor spheroid response to Polymerase (POL) inhibitors (novobiocin, ART-558, RP6685) in combination with a variety of drugs and investigational agents in selected tumor cell lines
The POL inhibitors (novobiocin, ART-558, and RP6685) were evaluated both individually and in combination with standard of care and investigational anticancer small molecules within a complex spheroid model of solid tumors. . Complex spheroids include a stromal component modeled by human endothelial cells (HUVEC) and fibroblasts modeled by human mesenchymal stem cells (MSCs). The concentration ranges selected for each drug and investigational agent were based upon clinically achievable concentrations if the clinical Cmax of the agent was known.
Compounds. The drugs and investigational agents: novobiocin (NSC847541), ART-558 (NSC835418), RP-6685 (NSC848927), peposertib (NSC802822), ceralasertib (NSC780249), elimusertib (NSC800525), camonsertib (NSC841442), AZD-1390 (NSC803789), olaparib (NSC753686), talazoparib (NSC767125), rucaparib (NSC756644), sotorasib (NSC818433), MRTX-1133 (NSC836407), SN-38 (NSC673596), topotecan (NSC609699), epotoside (NSC141540), doxorubicin (NSC123127), gemcitabine (NSC613327), 5-fluorouracil (NSC19893), paclitaxel (NSC125973), vemurafenib (NSC761431), MSA-2 (NSC828583), SN-011 (NSC837082), adavosertib (NSC754352), prexasertib (NSC758257), carboplatin (NSC241240) and oxaliplatin (NSC266046), were obtained from the National Cancer Institute (NCI) Developmental Therapeutics Program Chemical Repository (21). The FDA-approved anticancer drug set is available from the Developmental Therapeutics Program at https://dtp.cancer.gov/organization/dscb/obtaining/. […] The stock solutions were prepared in dimethyl sulfoxide (DMSO, Sigma-Aldrich, St. Louis, MO, cat. D2650), except for the platinum compounds which were prepared in saline (Quality Biological, Gaithersburg, MD, cat. 114-055-101), at 800-fold the tested concentration and stored at -70 degrees C prior to their use. All drugs and investigational agents were tested over a range starting from a high concentration at or near the clinical Cmax and decreasing in half-log increments. If the clinical Cmax for an agent had not been determined, the highest concentration tested was 10 microM, except for SN-38, which was tested at a high concentration of 1 microM.
Cell Culture. All cells were maintained in an incubator at 37 degrees C and 5% CO2 with 95% humidity. The PDC lines were cultured according to standard operating procedures established by the NCI PDMR (https://pdmr.cancer.gov). Table 3 of the manuscript, lists the cell lines along with the number of the three cell types plated to form the mct-spheroids and media for tumor cell growth. After thawing, all PDC lines, except 997537-175-T-J1-PDC and 415267-285-R-J2-PDC, were cultured in Matrigel-coated flasks prepared with a working solution of 1X Ham's F-12 nutrient mix, without supplementation (Thermo Fisher Scientific, cat. 11765054), 100 U/mL penicillin-streptomycin (Thermo Fisher Scientific, cat. 15140122), and 2.5% Matrigel (Corning Inc., Corning, NY, cat. 354248) for the first three passages. The two PDC lines 997537-175-T-J1-PDC and 415267-285-R-J2-PDC were cultured on uncoated flasks. The 857933-349-R-J2-PDC line was cultured in 6C/Colon 1B media containing advanced DMEM/F-12 (Thermo Fisher Scientific, cat. 12634028), 10 mM HEPES (Thermo Fisher Scientific, cat. 15630080), 1X GlutaMAX supplement (Thermo Fisher Scientific, cat. 35050061), 0.1 mg/mL primocin (InvivoGen, San Diego, CA, cat. ant-pm-2), 10% defined fetal bovine serum, heat inactivated (HyClone Laboratories Inc., Logan, UT, cat. SH30070.03HI), 50% L-WRN conditioned media (ATCC, cat. CRL-3276), 1.25 mM N-Acetyl-L-cysteine (Sigma-Aldrich, cat. A9165), 10 mM nicotinamide (Sigma-Aldrich, cat. N0636), 1X B-27 supplement (Thermo Fisher Scientific, cat. 17504044), 1X N-2 supplement (Thermo Fisher Scientific, cat. […]
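Note: spheroids exposed to drugs for seven days before viability read.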
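Throughout, for viability, T/C: 100% = DMSO vehicle control wells.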

Nc1ccn(C2OC(CO)C(O)C2(F)F)c(=O)n1 (centres undefined) + COC1C(OC(N)=O)C(O)C(Oc2ccc3c(O)c(NC(=O)c4ccc(O)c(CC=C(C)C)c4)c(=O)oc3c2C)OC1(C)C
IC50 (curve of first compound, second compound 0.0316 µM): < 31.6 nM
IC50 (curve of first compound, second compound 0.1 µM): < 31.6 nM
IC50 (curve of first compound, second compound 0.316 µM): < 31.6 nM
IC50 (curve of first compound, second compound 1 µM): < 31.6 nM
IC50 (curve of first compound, second compound 3.16 µM): < 31.6 nM
IC50 (curve of first compound, second compound 10 µM): < 31.6 nM
viability, T/C (second compound 0.0316 µM, first compound 0.0316 µM): 25.5%
viability, T/C (second compound 0.0316 µM, first compound 0.1 µM): 22.1%
viability, T/C (second compound 0.0316 µM, first compound 0.316 µM): 18.8%
viability, T/C (second compound 0.0316 µM, first compound 1 µM): 15%
viability, T/C (second compound 0.0316 µM, first compound 3.16 µM): 14.9%
viability, T/C (second compound 0.0316 µM, first compound 10 µM): 14.1%
viability, T/C (second compound 0.1 µM, first compound 0.0316 µM): 30.7%
viability, T/C (second compound 0.1 µM, first compound 0.1 µM): 18.8%
viability, T/C (second compound 0.1 µM, first compound 0.316 µM): 17.8%
viability, T/C (second compound 0.1 µM, first compound 1 µM): 16.9%
viability, T/C (second compound 0.1 µM, first compound 3.16 µM): 16.9%
viability, T/C (second compound 0.1 µM, first compound 10 µM): 14.5%
viability, T/C (second compound 0.316 µM, first compound 0.0316 µM): 32.2%
viability, T/C (second compound 0.316 µM, first compound 0.1 µM): 22.6%
viability, T/C (second compound 0.316 µM, first compound 0.316 µM): 17.7%
viability, T/C (second compound 0.316 µM, first compound 1 µM): 17.7%
viability, T/C (second compound 0.316 µM, first compound 3.16 µM): 16.3%
viability, T/C (second compound 0.316 µM, first compound 10 µM): 14.6%
viability, T/C (second compound 1 µM, first compound 0.0316 µM): 28.5%
viability, T/C (second compound 1 µM, first compound 0.1 µM): 23.4%
viability, T/C (second compound 1 µM, first compound 0.316 µM): 20.2%
viability, T/C (second compound 1 µM, first compound 1 µM): 13.6%
viability, T/C (second compound 1 µM, first compound 3.16 µM): 18.1%
viability, T/C (second compound 1 µM, first compound 10 µM): 16.5%
viability, T/C (second compound 3.16 µM, first compound 0.0316 µM): 26.1%
viability, T/C (second compound 3.16 µM, first compound 0.1 µM): 25.7%
viability, T/C (second compound 3.16 µM, first compound 0.316 µM): 21.7%
viability, T/C (second compound 3.16 µM, first compound 1 µM): 16.4%
viability, T/C (second compound 3.16 µM, first compound 3.16 µM): 16.7%
viability, T/C (second compound 3.16 µM, first compound 10 µM): 14.9%
viability, T/C (second compound 10 µM, first compound 0.0316 µM): 28.8%
viability, T/C (second compound 10 µM, first compound 0.1 µM): 23.6%
viability, T/C (second compound 10 µM, first compound 0.316 µM): 18.6%
viability, T/C (second compound 10 µM, first compound 1 µM): 14.4%
viability, T/C (second compound 10 µM, first compound 3.16 µM): 16.8%
viability, T/C (second compound 10 µM, first compound 10 µM): 17.9%

CC1COCCN1c1cc(C2(S(C)(=N)=O)CC2)nc(-c2ccnc3[nH]ccc23)n1 (centres undefined)
viability, T/C (compound 0.0316 µM): 98.1% and 87.1% and 102%
viability, T/C (compound 0.1 µM): 112% and 108% and 84.7%
viability, T/C (compound 0.316 µM): 80.3% and 107% and 90.2%
viability, T/C (compound 1 µM): 85.9% and 79.2% and 65.2%
viability, T/C (compound 3.16 µM): 46.4% and 41.8% and 49.7%
viability, T/C (compound 10 µM): 24.2% and 18.7% and 17.1%
IC50 (curve of compound): 3130 nM and 2420 nM and 2820 nM
